Source: patent publication US9062027B2, “Carboxamide compounds and their use as calpain inhibitors V” (AbbVie Deutschland GmbH & Co. KG, priority 2010, dated 2015)

Test system: not listed separately
Test: In-vivo pharmacokinetics and metabolite to parent ratio in plasma of cynomolgus monkeys
Conditions: cynomolgus monkey, female cynomolgus monkeys, 3 mg/kg oral versus 1 mg/kg intravenous
Experimental: The tested compounds were prepared as a solution for either intravenous or oral administration to groups of female cynomolgus monkeys. For intravenous dosing, the compounds were prepared in a 10% DMSO/PEG-400 vehicle at a concentration of 2 mg/ml. For oral dosing, the compounds were prepared in a lipid based vehicle at a concentration of 3 mg/ml. Groups of three monkeys received either a 1 mg/kg (0.5 ml/kg) intravenous dose or a 3 mg/kg (1 ml/kg) oral dose. The intravenous dose was administered as a slow bolus in a saphenous vein; the oral dose was administered by gastric intubation and was followed by ˜5 ml water. […] The samples were reconstituted with an aliquot of mobile phase, followed by quantification by HPLC-MS/MS. Standard curves for both parent and the selected metabolites were prepared from authentic standards in blank monkey plasma; standards were analyzed simultaneously with the samples. The plasma concentration of each sample was calculated by least squares linear regression analysis of the peak area ratio (parent or metabolite/internal standard) of the spiked plasma standards versus concentration.
Peak plasma concentrations (Cmax) and the time to peak plasma concentration (Tmax) were read directly from the plasma concentration data for each monkey. […] The apparent total plasma clearance (CLp) was calculated by dividing the administered dose by the AUC0-inf. […]

| bioavailability | SMILES |
| --- | --- |
| 3% | NC(=O)C(=O)C(Cc1ccccc1)NC(=O)c1cccnc1-n1cc2ccccc2n1 (stereo not drawn) [comp. ex., N-(3-Amino-1-benzyl-2,3-dioxopropyl)-2-(2H-indazol-2-yl)nicotinamide] |

Target: T1, calpain-I (Homo sapiens, UniProt P07384)
T1 construct: calpain-I—isolated from human erythrocytes; purchased Calbiochem 208713; host or cells: human erythrocytes (native tissue isolate)
T1 sequence (P07384 1-714): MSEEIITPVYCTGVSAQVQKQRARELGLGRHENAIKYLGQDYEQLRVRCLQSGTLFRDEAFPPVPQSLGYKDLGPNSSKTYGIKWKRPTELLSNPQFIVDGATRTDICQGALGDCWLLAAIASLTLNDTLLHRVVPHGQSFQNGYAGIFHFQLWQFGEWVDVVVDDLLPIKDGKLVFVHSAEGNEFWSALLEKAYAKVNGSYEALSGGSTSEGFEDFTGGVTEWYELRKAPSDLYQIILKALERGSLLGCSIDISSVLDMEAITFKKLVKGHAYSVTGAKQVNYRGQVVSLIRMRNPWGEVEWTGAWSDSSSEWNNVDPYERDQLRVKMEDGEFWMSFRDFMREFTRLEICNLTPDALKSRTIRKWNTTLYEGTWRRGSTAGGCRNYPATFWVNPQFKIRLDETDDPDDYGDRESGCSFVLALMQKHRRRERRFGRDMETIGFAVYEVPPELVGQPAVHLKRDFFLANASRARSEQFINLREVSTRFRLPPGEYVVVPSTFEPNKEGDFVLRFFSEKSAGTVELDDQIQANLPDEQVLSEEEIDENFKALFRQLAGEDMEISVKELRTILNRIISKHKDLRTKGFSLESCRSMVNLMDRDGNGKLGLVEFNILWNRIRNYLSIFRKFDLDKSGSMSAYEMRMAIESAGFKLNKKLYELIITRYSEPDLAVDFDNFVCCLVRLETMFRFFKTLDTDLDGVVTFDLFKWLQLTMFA
T1 sequence (P04632 1-268 partner): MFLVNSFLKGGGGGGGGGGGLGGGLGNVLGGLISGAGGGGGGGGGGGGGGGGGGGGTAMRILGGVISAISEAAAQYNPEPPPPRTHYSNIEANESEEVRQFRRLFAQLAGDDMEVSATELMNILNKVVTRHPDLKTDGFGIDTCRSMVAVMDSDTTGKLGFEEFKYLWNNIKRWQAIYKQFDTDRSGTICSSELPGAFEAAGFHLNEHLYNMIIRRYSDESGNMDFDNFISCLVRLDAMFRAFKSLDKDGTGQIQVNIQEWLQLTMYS
Test: Calpain I enzyme inhibition in vitro (kinetic fluorescence assay)
Type: biochemical
Conditions: apparent Ki from IC50 by Cheng-Prussoff; calpain-I from human erythrocytes, pH 7.3
Experimental: Testing for blockade of the corresponding enzymic activities was carried out by means of kinetic fluorescence assays (excitation 390 nm, emission 460 nm).
Apparent Ki values were calculated from the experimentally determined IC50 values by the Cheng-Prussoff relation assuming a reversible competitive enzyme inhibition.
20 nM calpain-I—isolated from human erythrocytes (Calbiochem #208713), 100 μM Suc-Leu-Tyr-AMC (Bachem #I-1355) as substrate in buffer with 62 mM imidazole, 0.3 mM CaCl2, 0.10% CHAPS, 0.05% BSA, 1 mM DTT at pH 7.3 and room temperature.

| Ki | Calpain activity (Ki(calpain)) | SMILES |
| --- | --- | --- |
| 0.4 to 0.8 µM |  | O=C(NC1CC1)C(=O)C(Cc1ccccc1)NC(=O)c1cccnc1-n1cc2ccccc2n1 (stereo not drawn) [Example 1, N-[4-(Cyclopropylamino)-3,4-dioxo-1-phenylbutan-2-yl]-2-(2H-indazol-2-yl)nicotinamide] |
|  | ∘ | CCNC(=O)C(=O)C(Cc1ccccc1)NC(=O)c1cccnc1-n1cc2ccccc2n1 (stereo not drawn) [Example 2, N-[4-(Ethylamino)-3,4-dioxo-1-phenyl-2-butanyl]-2-(2H-indazol-2-yl)nicotinamide] |
| < 0.25 µM |  | CONC(=O)C(=O)C(Cc1ccccc1)NC(=O)c1cccnc1-n1cc2ccccc2n1 (stereo not drawn) [Example 3, 2-(2H-Indazol-2-yl)-N-[4-(methoxyamino)-3,4-dioxo-1-phenyl-2-butanyl]nicotinamide] |
| < 0.25 µM |  | CCONC(=O)C(=O)C(Cc1ccccc1)NC(=O)c1cccnc1-n1cc2ccccc2n1 (stereo not drawn) [Example 4, N-[4-(Ethoxyamino)-3,4-dioxo-1-phenyl-2-butanyl]-2-(2H-indazol-2-yl)nicotinamide] |
| 0.4 to 0.8 µM |  | O=C(NC1CC1)C(=O)C(Cc1ccccc1)NC(=O)c1cccnc1-n1cc2c(n1)CCCC2 (stereo not drawn) [Example 5, N-[4-(Cyclopropylamino)-3,4-dioxo-1-phenyl-2-butanyl]-2-(4,5,6,7-tetrahydro-2H-indazol-2-yl)nicotinamide] |
| < 0.25 µM |  | CONC(=O)C(=O)C(Cc1ccccc1)NC(=O)c1cccnc1-n1cc2cc(F)ccc2n1 (stereo not drawn) [Example 7, 2-(5-Fluoro-2H-indazol-2-yl)-N-[4-(methoxyamino)-3,4-dioxo-1-phenyl-2-butanyl]-3-pyridinecarboxamide] |
| 0.25 to 0.4 µM |  | CONC(=O)C(=O)C(Cc1ccccc1)NC(=O)c1cccnc1-n1cc2ccc(F)cc2n1 (stereo not drawn) [Example 8, 2-(6-Fluoro-2H-indazol-2-yl)-N-[4-(methoxyamino)-3,4-dioxo-1-phenyl-2-butanyl]-3-pyridinecarboxamide] |
| < 0.25 µM |  | CONC(=O)C(=O)C(Cc1ccccc1)NC(=O)c1cccnc1-n1cc2ccc(C(F)(F)F)cc2n1 (stereo not drawn) [Example 9, N-[4-(Methoxyamino)-3,4-dioxo-1-phenyl-2-butanyl]-2-[6-(trifluoromethyl)-2H-indazol-2-yl]-3-pyridinecarboxamide] |
